Measurements as given in patent publication US8524691B2, “Phosphonated rifamycins and uses thereof for the prevention and treatment of bone and joint infections” (The Medicines Company, priority 2008, dated 2013).
Read-outs that look alike come from different tables or passages of the source.

How the values were obtained:
S. aureus ATCC 13709 [1] = experiment: microbe, parasite or virus in culture; assay type: cell-based; conditions: for Serum dependence of antibacterial activity (in words): MIC with versus without serum
[2] = system: Novobiocin resistant mutant strain of S. aureus ATCC 13709; experiment: Prophylactic efficacy in rat model of S. aureus bone infection; assay type: in vivo; conditions: for Measured bacterial titer, test compound: 20 mg/kg parent drug equivalent, tibia 24 h postinfection; for Prophylactic activity in rat bone infection model (in words): 20 mg/kg, 1 day or 5 days prior to infection
Description: To determine the in vivo activity of bisphosphonated prodrugs of Rifamycin derived antibacterials in comparison to their non-bisphosphonated parents, compounds 18, 19, 48a, 59, 66, 89, 95, 102, 110, 142b and 164 and their parent drug rifabutin were used as prophylactic therapeutics in an animal model of infection. Specifically, a spontaneous Novobiocin resistant mutant strain of S. aureus ATCC 13709 (a clinical osteomyelitis isolate), was grown overnight at 37° C. in brain heart infusion broth (BHIB). After 16 h of growth, cells were subcultured into fresh BHIB and incubated for 4 to 5 h at 37° C. The cells were washed twice with phosphate-buffered saline (PBS) and resuspended in BHIB supplemented with 10% (vol./vol.) fetal bovine serum at a density of approximately 10^10 colony forming units (CFU)/ml (based upon turbidimetry). The suspension was aliquoted and a portion was used to check the CFU count. The culture was stored frozen (−80° C.) and was used without subculture. For use as an inoculum the culture was thawed, diluted in PBS and kept in an ice bath until it was used.
Animals were infected as described by O'Reilly et al. (Antimicrobial Agents and Chemotherapy (1992), 36(12): 2693-97) to generate the bone infection. Female CD rats (age, 57 to 70 days; n=5/group; Charles River, St-Constant, Canada) were anaesthetized by isofluorane before and during the surgery. Following complete induction of anesthesia, the rat was placed ventral side up and hair was shaved from the surgical site. The skin over the leg was cleaned and disinfected (proviodine-ethanol 70%). A longitudinal incision below the knee joint was made in the sagital plane. The incision was made over the bone below the “knee joint” (tibia head or condyle) but not completely extending to the ankle. A high speed drill fitted with a 2 mm bulb bit was used to drill a hole into the medullar cavity of the tibia. Rats were injected intra-tibially with 0.05 ml 5% sodium morrhuate (sclerosing agent) and then with 0.05 ml of S. aureus suspension (ca. 2×10^7 CFU/rat). The hole was sealed by applying a small amount of dry dental cement which immediately absorbs fluids and adheres to the site. The wound was closed using 3 metal skin clips. Moxifloxacin (as a positive control) was injected once at 10 mg/kg intravenously 1 h postinfection in saline, while the Rifabutin derived prodrugs (prepared in 0.9% saline) were injected at the dose indicated in Table 3 as a single intravenous bolus at different time points prior to the infection.
Infected rats were sacrificed by CO2 asphyxiation 24 h postinfection to monitor the bacterial CFU count. Infected tibiae were removed, dissected free of soft tissue, and weighed. The bones were ground, 50 mg of charcoal were added and the powder was resuspended in 5 ml 0.9% NaCl, serially diluted and processed for quantitative cultures. Treatment efficacy was measured in terms of Log viable bacteria (Log CFU per gram of bone). […] The limit of detection is 2 Log CFU. Statistical comparisons of viable bacterial counts for the different treated and untreated groups were performed with the Dunnett's multiple-comparison test. Differences were considered significant when the P value was <0.05 when comparing treated infected animals to the untreated infected ones. The doses used, the amount of time separating the treatment from the time of infection and the treatment outcomes are shown in Table 3.

[3] = assay type: in vitro ADME; conditions: for % Conversion (prodrug converted to parent drug after binding to bone): 24 h incubation, 37° C.
Description: Amounts of parent drug “regenerated” from the phosphonated prodrug were measured as follows. Washed bone powder-bound prodrugs from the above experiment were resuspended in 400 μL PBS+2% DMSO or in 400 μL 50% (v/v in PBS+2% DMSO) human or rat serum. The suspension was incubated overnight at 37° C., centrifuged at 13,000 rpm for 2 min and the supernatant was recovered. The amount of regenerated parent drug in the supernatant was determined by measurements using the microbiological assay that was previously described for the prodrugs themselves. The amount of prodrug was deduced from standard curves of known amounts of parent drug that were used as reference for each experiment. The amount of regenerated drug assessed by this bioassay was corroborated by MIC determination. The percentage of drug regenerated in PBS or serum after the overnight incubation (Table 2) was deduced from the difference between the amount of bound prodrug and the amount of regenerated drug (not shown).

[4] = system: S. aureus ATCC 13709^A, Novobiocin and Rifampicin resistant variant; experiment: Antibacterial susceptibility (MIC), NCCLS broth microdilution; assay type: cell-based
Procedure, shortened: (§1)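 Two-fold serial dilutions in DMSO were tested in cation-adjusted Mueller Hinton broth, following NCCLS M26-A, at 5×10^5 c.f.u./mL with 1.25% DMSO final, in duplicate. Plates were incubated at 37 °C for 18 h. MIC was the lowest concentration inhibiting visible growth.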

S. aureus ATCC 29213 = experiment: as above; assay type: cell-based; conditions: CAMHB, 37° C., 18 h
Procedure, shortened: as §1

S. aureus ATCC 13709 [5] = experiment: microbe, parasite or virus in culture; assay type: cell-based; conditions: for Minimum inhibitory concentration, S. aureus ATCC 13709: CAMHB, 37° C., 18 h; for Antibacterial activity (in words, from Table 1): S. aureus MIC
Procedure, shortened: as §1

[6] = single intravenous bolus 1 day prior to infection
[7] = single intravenous bolus 5 days prior to infection

## CCN(CC)CC.CCN(CC)CC.CO[C@H]1/C=C/O[C@@]2(C)Oc3c(C)c(O)c4c(c3C2=O)C2=NC3(CCN(CC(C)C)CC3)N(C(=O)OCc3ccc(OC(=O)CCCC(P(=O)(O)O)P(=O)(O)O)cc3)C2=C(NC(=O)/C(C)=C\C=C\[C@H](C)[C@H](O)[C@@H](C)[C@@H](O)[C@@H](C)[C@H](OC(C)=O)[C@@H]1C)C4=O [Compound 18]
S. aureus ATCC 13709 [1]
  Minimum inhibitory concentration, ATCC 13709 + 50% Human Serum: 0.125 µg/mL
  Minimum inhibitory concentration, ATCC 13709 + 50% Mouse Serum: 0.125 µg/mL
  Minimum inhibitory concentration, ATCC 13709 + 50% Rat Serum: 0.0156 µg/mL
[2]; [6]
  Measured bacterial titer, test compound: 2.08 ± 0.02 Log CFU/g of bone
[2]; [7]
  Measured bacterial titer, test compound: 2.91 ± 1.33 Log CFU/g of bone
[2]
  Prophylactic activity in rat bone infection model (in words): active at 1 day and display activity similar to rifabutin at 5 days
[3]
  Release of parent rifabutin from bone powder-bound prodrug (in words): release significant amounts of the parent rifabutin once bound to bone powder, regardless of the presence of serum
[3]; 50% Heat Inactivated Rat Serum
  % Conversion (prodrug converted to parent drug after binding to bone): 0.55 ± 0.20%
[3]; 50% Rat Serum
  % Conversion (prodrug converted to parent drug after binding to bone): 0.95 ± 0.40%
[3]; PBS
  % Conversion (prodrug converted to parent drug after binding to bone): 0.66 ± 0.03%
[4]
  Minimum inhibitory concentration, S. aureus ATCC 13709^A: >128 µg/mL
S. aureus ATCC 29213
  Minimum inhibitory concentration, S. aureus ATCC 29213: 0.125 µg/mL
S. aureus ATCC 13709 [5]
  Minimum inhibitory concentration, S. aureus ATCC 13709: 0.125 µg/mL
  Antibacterial activity (in words, from Table 1): very low MICs whether in the absence or in the presence of serum

## CO[C@H]1/C=C/O[C@@]2(C)Oc3c(C)c(O)c4c(c3C2=O)C2=NC3(CCN(CC(C)C)CC3)N(C(=O)OCc3cc(C)c(OC(=O)CCC(P(=O)(O)O)P(=O)(O)O)c(C)c3)C2=C(NC(=O)/C(C)=C\C=C\[C@H](C)[C@H](O)[C@@H](C)[C@@H](O)[C@@H](C)[C@H](OC(C)=O)[C@@H]1C)C4=O.N.N [Compound 19]
S. aureus ATCC 13709 [1]
  Minimum inhibitory concentration, ATCC 13709 + 50% Human Serum: 0.125 µg/mL
  Minimum inhibitory concentration, ATCC 13709 + 50% Mouse Serum: 0.0625 µg/mL
  Minimum inhibitory concentration, ATCC 13709 + 50% Rat Serum: 0.0156 µg/mL
[2]; [6]
  Measured bacterial titer, test compound: 2.55 ± 0.69 Log CFU/g of bone
[2]; [7]
  Measured bacterial titer, test compound: 3.69 ± 1.45 Log CFU/g of bone
[2]
  Prophylactic activity in rat bone infection model (in words): active at 1 day and display activity similar to rifabutin at 5 days
[3]
  Release of parent rifabutin from bone powder-bound prodrug (in words): release significant amounts of the parent rifabutin once bound to bone powder, regardless of the presence of serum
[3]; 50% Heat Inactivated Rat Serum
  % Conversion (prodrug converted to parent drug after binding to bone): 0.14%
[3]; 50% Rat Serum
  % Conversion (prodrug converted to parent drug after binding to bone): 0.14%
[3]; PBS
  % Conversion (prodrug converted to parent drug after binding to bone): 0.14%
[4]
  Minimum inhibitory concentration, S. aureus ATCC 13709^A: >128 µg/mL
S. aureus ATCC 29213
  Minimum inhibitory concentration, S. aureus ATCC 29213: 0.25 µg/mL
S. aureus ATCC 13709 [5]
  Minimum inhibitory concentration, S. aureus ATCC 13709: 0.25 µg/mL
  Antibacterial activity (in words, from Table 1): very low MICs whether in the absence or in the presence of serum

## CCC(=O)OCOC(=O)N[C@@H](Cc1ccc(OCCCC(P(=O)(O)O)P(=O)(O)O)cc1)C(=O)N(C)CC(=O)O[C@@H]1[C@@H](C)[C@@H](O)[C@@H](C)[C@H](OC(C)=O)[C@H](C)[C@@H](OC)/C=C/O[C@@]2(C)Oc3c(C)c(O)c4c(c3C2=O)C2=NC3(CCN(CC(C)C)CC3)NC2=C(NC(=O)/C(C)=C\C=C\[C@@H]1C)C4=O.N.N [Compound 89]
S. aureus ATCC 13709 [1]
  Minimum inhibitory concentration, ATCC 13709 + 50% Human Serum: 16 µg/mL
  Minimum inhibitory concentration, ATCC 13709 + 50% Mouse Serum: 0.0625 µg/mL
  Minimum inhibitory concentration, ATCC 13709 + 50% Rat Serum: 0.0156 µg/mL
  Serum dependence of antibacterial activity (in words): significant increase in antibacterial activity in serum
[2]; [6]
  Measured bacterial titer, test compound: 2.05 ± 0.07 Log CFU/g of bone
[2]; [7]
  Measured bacterial titer, test compound: 3.45 ± 1.36 Log CFU/g of bone
[2]
  Prophylactic activity in rat bone infection model (in words): active at 1 day and display activity similar to rifabutin at 5 days
[3]
  Release of parent rifabutin from bone powder-bound prodrug (in words): regeneration is clearly accelerated by the presence of serum
[3]; 50% Heat Inactivated Rat Serum
  % Conversion (prodrug converted to parent drug after binding to bone): 0.16 ± 0.04%
[3]; 50% Rat Serum
  % Conversion (prodrug converted to parent drug after binding to bone): 0.18%
[3]; PBS
  % Conversion (prodrug converted to parent drug after binding to bone): 0.02%
[4]
  Minimum inhibitory concentration, S. aureus ATCC 13709^A: >128 µg/mL
S. aureus ATCC 29213
  Minimum inhibitory concentration, S. aureus ATCC 29213: 4 µg/mL
S. aureus ATCC 13709 [5]
  Minimum inhibitory concentration, S. aureus ATCC 13709: 4 µg/mL

## CCC(=O)OCOC(=O)N[C@@H](CCCCNC(=O)CCC(P(=O)(O)O)P(=O)(O)O)C(=O)N(C)CC(=O)O[C@@H]1[C@@H](C)[C@@H](O)[C@@H](C)[C@H](OC(C)=O)[C@H](C)[C@@H](OC)/C=C/O[C@@]2(C)Oc3c(C)c(O)c4c(c3C2=O)C2=NC3(CCN(CC(C)C)CC3)NC2=C(NC(=O)/C(C)=C\C=C\[C@@H]1C)C4=O.N.N [Compound 95]
S. aureus ATCC 13709 [1]
  Minimum inhibitory concentration, ATCC 13709 + 50% Human Serum: 16 µg/mL
  Minimum inhibitory concentration, ATCC 13709 + 50% Mouse Serum: 0.0625 µg/mL
  Minimum inhibitory concentration, ATCC 13709 + 50% Rat Serum: 0.0156 µg/mL
  Serum dependence of antibacterial activity (in words): significant increase in antibacterial activity in serum
[2]; [6]
  Measured bacterial titer, test compound: 2.3 ± 0.57 Log CFU/g of bone
[2]; [7]
  Measured bacterial titer, test compound: 3.75 ± 0.54 Log CFU/g of bone
[2]
  Prophylactic activity in rat bone infection model (in words): active at 1 day and display activity similar to rifabutin at 5 days
[3]
  Release of parent rifabutin from bone powder-bound prodrug (in words): regeneration is clearly accelerated by the presence of serum
[3]; 50% Heat Inactivated Rat Serum
  % Conversion (prodrug converted to parent drug after binding to bone): 0.13%
[3]; 50% Rat Serum
  % Conversion (prodrug converted to parent drug after binding to bone): 0.14 ± 0.06%
[3]; PBS
  % Conversion (prodrug converted to parent drug after binding to bone): 0.02%
[4]
  Minimum inhibitory concentration, S. aureus ATCC 13709^A: >128 µg/mL
S. aureus ATCC 29213
  Minimum inhibitory concentration, S. aureus ATCC 29213: 4 µg/mL
S. aureus ATCC 13709 [5]
  Minimum inhibitory concentration, S. aureus ATCC 13709: 4 µg/mL
